According to article PMC12030706, “Novel ^177Lu-Labeled [Thz^14]Bombesin(6–14) Derivatives with Low Pancreas Accumulation for Targeting Gastrin-Releasing Peptide Receptor-Expressing Cancer” (Pharmaceuticals, 2025):
Numbered stars: 1 amine (or outer) side, 2 acyl side, 3 side chain; on linkers, the order of the positions; unused ones are H or OH. Square brackets hold non-standard residues; d marks the D form. Peptide text beside a SMILES is read from it. * marks the point of attachment. DOTA = O=C(O)CN1CCN(CC(=O)O)CCN(CC(=O)*)CCN(CC(=O)O)CC1; NMeH = CN[C@@H](Cc1c[nH]cn1)C(=O)O; X1 = O=C(CN1CCC(N[*:1])CC1)[*:2]; Tle = CC(C)(C)[C@H](N)C(=O)O; Thz = O=C(O)[C@@H]1CSCN1

What was measured:
[1] = LogD7.4 measurement, shake flask method; format: physicochemical; details: n-octanol/DPBS pH 7.4, n = 3
Description: The logD7.4 values of all the ^177Lu-labeled GRPR-targeted ligands were measured using the shake flask method as previously reported. An aliquot (~2 MBq) of the radiolabeled product was added to a mixture of n-octanol (3 mL) and DPBS (3 mL, pH 7.4), followed by 1 min vortexing and 15 min centrifugation at 5000 rpm. Samples of the n-octanol (1 mL) and buffer (1 mL) layers were collected, and the activity was counted using a gamma counter. The logD7.4 values were calculated using the following equation: logD7.4=log10[countsn−octanolphase/countsbutterphase]

[2] = Ex vivo biodistribution in PC-3 tumor-bearing mice; details: mouse; for tissue to tissue ratio at 1 h / tissue to tissue ratio at 4 h / tissue to tissue ratio at 24 h / tissue to tissue ratio at 72 h / tissue to tissue ratio at 120 h: male, NOD.Cg-Rag1^tm1Mom Il2rg^tm1Wjl/SzJ (NRG), total radioactivity; for tissue to tissue ratio at 4 h / tissue uptake at 4 h: 4 h post-injection; for tissue to tissue ratio at 24 h / tissue uptake at 24 h: 24 h post-injection; for tissue to tissue ratio at 72 h / tissue uptake at 72 h: 72 h post-injection; for tissue to tissue ratio at 120 h / tissue uptake at 120 h: 120 h post-injection
Description: SPECT/CT imaging experiments were performed using an MILabs (Houten, The Netherlands) U-SPECT-II/CT scanner with a custom-made ultra-high-sensitivity big mouse collimator (2 mm pinhole size) following previously reported procedures. […] Male NOD.Cg-Rag1^tm1Mom Il2rg^tm1Wjl/SzJ (NRG) mice were used in these experiments because of their immunodeficient characteristics and excellent radiation tolerance. Mice were anaesthetized and subcutaneously implanted with 5 × 10^6 PC-3 prostate cancer cells (100 µL; 1:1 PBS/Matrigel) behind the left shoulder. SPECT/CT imaging and biodistribution studies were performed once the tumors reached a diameter of 5–8 mm, typically after approximately 4 weeks of growth.
For ex vivo biodistribution studies, the mice were injected with ~2–6 MBq of the radioligand. […] Blocking study was conducted at 1 h post-injection via co-injection of the radioligand with 100 μg of [D-Phe^6,Leu-NHEt^13,des-Met^14]Bombesin(6–14). Organs/tissues of interested were collected, weighed, and measured using an automatic gamma counter.

[3] = tumor/blood, Tumor/blood uptake ratio
[4] = tumor/kidney, Tumor/kidney uptake ratio
[5] = tumor/muscle, Tumor/muscle uptake ratio
[6] = tumor/pancreas, Tumor/pancreas uptake ratio
[7] = PC-3 tumor, Uptake in PC-3 tumor
[8] = adrenal glands, Uptake in adrenal glands

Q: For `CC(C)C[C@H](NC(=O)[C@H](Cc1cnc[nH]1)N(C)C(=O)CNC(=O)[C@@H](NC(=O)[C@H](C)NC(=O)[C@H](Cc1c[nH]c2ccccc12)NC(=O)[C@H](Cc1c[nH]cn1)NC(=O)[C@@H](Cc1ccccc1)NC(=O)CN1CCC(NC(=O)CN2CCN(CC(=O)O)CCN(CC(=O)O)CCN(CC(=O)O)CC2)CC1)C(C)(C)C)C(=O)N1CSC[C@H]1C(N)=O` [[^177Lu]Lu-LW01142, metal not drawn] ({DOTA}-[X1][dF]HWA[Tle]G[NMeH]L[Thz]-NH2), which logD [1] is on record?
A: -2.28 ± 0.14

Q: What about the tissue to tissue ratio at 1 h ([2]; tumor/blood, Tumor/blood uptake ratio, 1 h blocked (co-injected with 100 µg [D-Phe6,Leu-NHEt13,des-Met14]Bombesin(6-14))) of the same compound?
A: 3.91 ± 0.87

Q: And the tissue to tissue ratio at 1 h ([2]; tumor/blood, Tumor/blood uptake ratio, 1 h post-injection)?
A: 8.08 ± 0.92

Q: What about the tissue to tissue ratio at 4 h [2, 3] of the same compound?
A: 162 ± 52

Q: And the tissue to tissue ratio at 24 h [2, 3]?
A: 841 ± 162

Q: And the tissue to tissue ratio at 72 h [2, 3]?
A: 1620 ± 500

Q: What about the tissue to tissue ratio at 120 h [2, 3] of the same compound?
A: 1800 ± 724

Q: What about the tissue to tissue ratio at 1 h ([2]; tumor/kidney, Tumor/kidney uptake ratio, 1 h blocked (co-injected with 100 µg [D-Phe6,Leu-NHEt13,des-Met14]Bombesin(6-14))) of the same compound?
A: 0.7 ± 0.15

Q: What about the tissue to tissue ratio at 1 h ([2]; tumor/kidney, Tumor/kidney uptake ratio, 1 h post-injection) of the same compound?
A: 1.95 ± 0.04

Q: And the tissue to tissue ratio at 4 h [2, 4]?
A: 2.14 ± 0.26

Q: And the tissue to tissue ratio at 24 h [2, 4]?
A: 2.88 ± 0.84

Q: What about the tissue to tissue ratio at 72 h [2, 4] of the same compound?
A: 7.34 ± 1.83

Q: And the tissue to tissue ratio at 120 h [2, 4]?
A: 7.46 ± 1.11

Q: What about the tissue to tissue ratio at 1 h ([2]; tumor/muscle, Tumor/muscle uptake ratio, 1 h blocked (co-injected with 100 µg [D-Phe6,Leu-NHEt13,des-Met14]Bombesin(6-14))) of the same compound?
A: 25.2 ± 10.1

Q: And the tissue to tissue ratio at 1 h ([2]; tumor/muscle, Tumor/muscle uptake ratio, 1 h post-injection)?
A: 60.1 ± 5.97

Q: What about the tissue to tissue ratio at 4 h [2, 5] of the same compound?
A: 454 ± 53.3

Q: What about the tissue to tissue ratio at 24 h [2, 5] of the same compound?
A: 672 ± 161

Q: What about the tissue to tissue ratio at 72 h [2, 5] of the same compound?
A: 736 ± 189

Q: What about the tissue to tissue ratio at 120 h [2, 5] of the same compound?
A: 588 ± 92.8

Q: What about the tissue to tissue ratio at 1 h ([2]; tumor/pancreas, Tumor/pancreas uptake ratio, 1 h blocked (co-injected with 100 µg [D-Phe6,Leu-NHEt13,des-Met14]Bombesin(6-14))) of the same compound?
A: 2.79 ± 0.69

Q: And the tissue to tissue ratio at 1 h ([2]; tumor/pancreas, Tumor/pancreas uptake ratio, 1 h post-injection)?
A: 3.06 ± 0.45

Q: And the tissue to tissue ratio at 4 h [2, 6]?
A: 7.53 ± 0.35

Q: What about the tissue to tissue ratio at 24 h [2, 6] of the same compound?
A: 6.78 ± 0.88

Q: And the tissue to tissue ratio at 72 h [2, 6]?
A: 6.18 ± 0.6

Q: And the tissue to tissue ratio at 120 h [2, 6]?
A: 4.08 ± 1

Q: What about the tissue uptake at 1 h ([2]; PC-3 tumor, 100 ug, Uptake in PC-3 tumor, 1 h blocked (co-injected with 100 µg [D-Phe6,Leu-NHEt13,des-Met14]Bombesin(6-14))) of the same compound?
A: 5.03 ± 0.43 %ID/g

Q: What about the tissue uptake at 1 h ([2]; PC-3 tumor, Uptake in PC-3 tumor, 1 h post-injection) of the same compound?
A: 13.4 ± 1.48 %ID/g

Q: What about the tissue uptake at 4 h [2, 7] of the same compound?
A: 11.8 ± 2.24 %ID/g

Q: And the tissue uptake at 24 h [2, 7]?
A: 7.07 ± 1.23 %ID/g

Q: And the tissue uptake at 72 h [2, 7]?
A: 4.18 ± 0.6 %ID/g

Q: What about the tissue uptake at 120 h [2, 7] of the same compound?
A: 2.25 ± 0.71 %ID/g

Q: What about the tissue uptake at 1 h ([2]; adrenal glands, 100 ug, Uptake in adrenal glands, 1 h blocked (co-injected with 100 µg [D-Phe6,Leu-NHEt13,des-Met14]Bombesin(6-14))) of the same compound?
A: 0.75 ± 0.33 %ID/g

Q: What about the tissue uptake at 1 h ([2]; adrenal glands, Uptake in adrenal glands, 1 h post-injection) of the same compound?
A: 1.43 ± 0.5 %ID/g

Q: What about the tissue uptake at 4 h [2, 8] of the same compound?
A: 0.59 ± 0.06 %ID/g

Q: What about the tissue uptake at 24 h [2, 8] of the same compound?
A: 0.41 ± 0.08 %ID/g

Q: What about the tissue uptake at 72 h [2, 8] of the same compound?
A: 0.2 ± 0.05 %ID/g

Q: What about the tissue uptake at 1 h ([2]; blood, 100 ug, Uptake in blood, 1 h blocked (co-injected with 100 µg [D-Phe6,Leu-NHEt13,des-Met14]Bombesin(6-14))) of the same compound?
A: 1.34 ± 0.35 %ID/g

Q: And the tissue uptake at 1 h ([2]; blood, Uptake in blood, 1 h post-injection)?
A: 1.67 ± 0.21 %ID/g

Q: What about the tissue uptake at 4 h ([2]; blood, Uptake in blood) of the same compound?
A: 0.08 ± 0.01 %ID/g

Q: And the tissue uptake at 24 h ([2]; blood, Uptake in blood)?
A: 0.01 %ID/g

Q: And the tissue uptake at 1 h ([2]; bone, 100 ug, Uptake in bone, 1 h blocked (co-injected with 100 µg [D-Phe6,Leu-NHEt13,des-Met14]Bombesin(6-14)))?
A: 0.13 ± 0.03 %ID/g

Q: What about the tissue uptake at 4 h ([2]; bone, Uptake in bone) of the same compound?
A: 0.03 ± 0.01 %ID/g

Q: And the tissue uptake at 24 h ([2]; bone, Uptake in bone)?
A: 0.03 ± 0.01 %ID/g

Q: And the tissue uptake at 72 h ([2]; bone, Uptake in bone)?
A: 0.03 ± 0.01 %ID/g

Q: And the tissue uptake at 120 h ([2]; bone, Uptake in bone)?
A: 0.02 ± 0.01 %ID/g

Q: What about the tissue uptake at 1 h ([2]; brain, 100 ug, Uptake in brain, 1 h blocked (co-injected with 100 µg [D-Phe6,Leu-NHEt13,des-Met14]Bombesin(6-14))) of the same compound?
A: 0.03 ± 0.01 %ID/g

Q: What about the tissue uptake at 1 h ([2]; brain, Uptake in brain, 1 h post-injection) of the same compound?
A: 0.03 ± 0.01 %ID/g

Q: What about the tissue uptake at 4 h ([2]; brain, Uptake in brain) of the same compound?
A: 0.01 %ID/g

Q: What about the tissue uptake at 1 h ([2]; fat, 100 ug, Uptake in fat, 1 h blocked (co-injected with 100 µg [D-Phe6,Leu-NHEt13,des-Met14]Bombesin(6-14))) of the same compound?
A: 0.14 ± 0.04 %ID/g

Q: What about the tissue uptake at 1 h ([2]; fat, Uptake in fat, 1 h post-injection) of the same compound?
A: 0.11 ± 0.04 %ID/g

Q: And the tissue uptake at 4 h ([2]; fat, Uptake in fat)?
A: 0.02 ± 0.01 %ID/g

Q: What about the tissue uptake at 24 h ([2]; fat, Uptake in fat) of the same compound?
A: 0.01 %ID/g

Q: What about the tissue uptake at 72 h ([2]; fat, Uptake in fat) of the same compound?
A: 0.01 %ID/g

Q: And the tissue uptake at 1 h ([2]; heart, 100 ug, Uptake in heart, 1 h blocked (co-injected with 100 µg [D-Phe6,Leu-NHEt13,des-Met14]Bombesin(6-14)))?
A: 0.43 ± 0.14 %ID/g

Q: What about the tissue uptake at 1 h ([2]; heart, Uptake in heart, 1 h post-injection) of the same compound?
A: 0.45 ± 0.06 %ID/g

Q: What about the tissue uptake at 24 h ([2]; heart, Uptake in heart) of the same compound?
A: 0.02 ± 0.01 %ID/g

Q: And the tissue uptake at 72 h ([2]; heart, Uptake in heart)?
A: 0.02 %ID/g

Q: What about the tissue uptake at 120 h ([2]; heart, Uptake in heart) of the same compound?
A: 0.01 %ID/g

Q: What about the tissue uptake at 1 h ([2]; kidneys, 100 ug, Uptake in kidneys, 1 h blocked (co-injected with 100 µg [D-Phe6,Leu-NHEt13,des-Met14]Bombesin(6-14))) of the same compound?
A: 7.44 ± 1.71 %ID/g

Q: And the tissue uptake at 24 h ([2]; kidneys, Uptake in kidneys)?
A: 2.64 ± 0.94 %ID/g

Q: And the tissue uptake at 72 h ([2]; kidneys, Uptake in kidneys)?
A: 0.6 ± 0.17 %ID/g

Q: What about the tissue uptake at 120 h ([2]; kidneys, Uptake in kidneys) of the same compound?
A: 0.3 ± 0.07 %ID/g
